# Experimental data as given in patent US11472791B2 (Incyte Corporation, priority 2019, dated 2022).
# Target: CDK2/Cyclin E1 (Homo sapiens (Human), UniProt P24941)
# Test: CDK2/Cyclin E1 HTRF enzyme activity assay
# Assay type: biochemical
# Conditions: 1 mM ATP
# Protocol: Assays are conducted in white 384-well polystyrene plates in a final reaction volume of 8 μL. […] HTRF signals are read after 1 hour at room temperature on a PHERAstar FS plate reader (BMG Labtech). Data is analyzed with IDBS XLFit and GraphPad Prism 5.0 software using a three or four parameter dose response curve to determine IC50 for each compound.
row,IC50 [nM],SMILES
1,< 50,"[2H]C([2H])([2H])NCc1ccc(-n2cc(-c3nc(NC4CCN(S(=O)(=O)c5ccn(C)n5)CC4)ncc3C#N)cn2)c(Cl)c1 [Example 142, 4-(1-(2-Chloro-4-(((methyl-d3)amino)methyl)phenyl)-1H-pyrazol-4-yl)-2-((1-((1-methyl-1H-pyrazol-3-yl)sulfonyl)piperidin-4-yl)amino)pyrimidine-5-carbonitrile]"
2,< 50,"[2H]C([2H])([2H])NCc1ccc(-n2cc(-c3nc(N[C@H]4CCN(S(C)(=O)=O)C[C@H]4F)ncc3C#N)cn2)c(Cl)c1 [Example 143, 4-(1-(2-Chloro-4-(((methyl-d3)amino)methyl)phenyl)-1H-pyrazol-4-yl)-2-(((3R,4S)-3-fluoro-1-(methylsulfonyl)piperidin-4-yl)amino)pyrimidine-5-carbonitrile]"
3,< 50,"[2H]C([2H])([2H])NCc1ccc(-n2cc(-c3nc(N[C@H]4CCN(S(=O)(=O)C5CC5)C[C@H]4C)ncc3C#N)cn2)c(Cl)c1 [Example 146, 4-(1-(2-Chloro-4-(((methyl-d3)amino)methyl)phenyl)-1H-pyrazol-4-yl)-2-(((3R,4S)-1-(cyclopropylsulfonyl)-3-methylpiperidin-4-yl)amino)pyrimidine-5-carbonitrile]"
4,< 50,"[2H]C([2H])([2H])NCc1ccc(-n2cc(-c3nc(N[C@H]4CCN(S(=O)(=O)c5ccn(C)n5)C[C@H]4C)ncc3C#N)cn2)c(Cl)c1 [Example 147, 4-(1-(2-Chloro-4-(((methyl-d3)amino)methyl)phenyl)-1H-pyrazol-4-yl)-2-(((3R,4S)-3-methyl-1-((1-methyl-1H-pyrazol-3-yl)sulfonyl)piperidin-4-yl)amino)pyrimidine-5-carbonitrile]"
5,< 50,"[2H]C([2H])([2H])NCc1ccc(-n2cc(-c3nc(NC4CCN(S(=O)(=O)c5cnn(C)c5)CC4)ncc3C#N)cn2)c(C)n1 [Example 149, 2-((1-((1-Methyl-1H-pyrazol-4-yl)sulfonyl)piperidin-4-yl)amino)-4-(1-(2-methyl-6-(((methyl-d3)amino)methyl)pyridin-3-yl)-1H-pyrazol-4-yl)pyrimidine-5-carbonitrile]"
6,< 50,"Cc1nc(CNC(C)C)ccc1-n1cc(-c2nc(NC3CCN(S(=O)(=O)C4CC4)CC3)ncc2C#N)cn1 [Example 153, 2-((1-(Cyclopropylsulfonyl)piperidin-4-yl)amino)-4-(1-(6-((isopropylamino)methyl)-2-methylpyridin-3-yl)-1H-pyrazol-4-yl)pyrimidine-5-carbonitrile]"

# Further lines, the compound ahead of its results:
row,SMILES,IC50 [nM]
1,"[2H]C([2H])([2H])NCc1ccc(-n2cc(-c3nc(N[C@H]4CCN(S(=O)(=O)CC)C[C@H]4F)ncc3C#N)cn2)c(Cl)c1 [Example 144, 4-(1-(2-Chloro-4-(((methyl-d3)amino)methyl)phenyl)-1H-pyrazol-4-yl)-2-(((3R,4S)-1-(ethylsulfonyl)-3-fluoropiperidin-4-yl)amino)pyrimidine-5-carbonitrile]",< 50
2,"[2H]C([2H])([2H])NCc1ccc(-n2cc(-c3nc(N[C@H]4CCN(S(=O)(=O)C5CC5)C[C@H]4F)ncc3C#N)cn2)c(Cl)c1 [Example 145, 4-(1-(2-Chloro-4-(((methyl-d3)amino)methyl)phenyl)-1H-pyrazol-4-yl)-2-(((3R,4S)-1-(cyclopropylsulfonyl)-3-fluoropiperidin-4-yl)amino)pyrimidine-5-carbonitrile]",< 50
3,"[2H]C([2H])([2H])NCc1ccc(-n2cc(-c3nc(N[C@H]4CCN(S(=O)(=O)c5cn(C)cn5)C[C@H]4C)ncc3C#N)cn2)c(Cl)c1 [Example 148, 4-(1-(2-Chloro-4-(((methyl-d3)amino)methyl)phenyl)-1H-pyrazol-4-yl)-2-(((3R,4S)-3-methyl-1-((1-methyl-1H-imidazol-4-yl)sulfonyl)piperidin-4-yl)amino)pyrimidine-5-carbonitrile]",< 50
4,"[2H]C([2H])([2H])NCc1ccc(-n2cc(-c3nc(N[C@H]4CCN(S(=O)(=O)c5cn(C)cn5)C[C@H]4C)ncc3C#N)cn2)c(C)n1 [Example 150, 2-(((3R,4S)-3-Methyl-1-((1-methyl-1H-imidazol-4-yl)sulfonyl)piperidin-4-yl)amino)-4-(1-(2-methyl-6-(((methyl-d3)amino)methyl)pyridin-3-yl)-1H-pyrazol-4-yl)pyrimidine-5-carbonitrile]",< 50
5,"Cc1nc(CNC(C)C)ccc1-n1cc(-c2nc(NC3CCN(S(=O)(=O)c4cn(C)cn4)CC3)ncc2C#N)cn1 [Example 151, 4-(1-(6-((Isopropylamino)methyl)-2-methylpyridin-3-yl)-1H-pyrazol-4-yl)-2-((1-((1-methyl-1H-imidazol-4-yl)sulfonyl)piperidin-4-yl)amino)pyrimidine-5-carbonitrile]",< 50
6,"Cc1nc(CNC(C)(C)C)ccc1-n1cc(-c2nc(NC3CCN(S(=O)(=O)c4cn(C)cn4)CC3)ncc2C#N)cn1 [Example 152, 4-(1-(6-((tert-Butylamino)methyl)-2-methylpyridin-3-yl)-1H-pyrazol-4-yl)-2-((1-((1-methyl-1H-imidazol-4-yl)sulfonyl)piperidin-4-yl)amino)pyrimidine-5-carbonitrile]",< 50
7,"N#Cc1cnc(N[C@H]2CCN(S(=O)(=O)C3CC3)C[C@H]2F)nc1-c1cnn(-c2ccc(CN[C@H]3C[C@@H](C#N)C3)cc2Cl)c1 [Example 154, 4-(1-(2-Chloro-4-((((1s,3s)-3-cyanocyclobutyl)amino)methyl)phenyl)-1H-pyrazol-4-yl)-2-(((3R,4S)-1-(cyclopropylsulfonyl)-3-fluoropiperidin-4-yl)amino)pyrimidine-5-carbonitrile]",< 50
8,"C[C@]1(NCc2ccc(-n3cc(-c4nc(N[C@H]5CCN(S(=O)(=O)C6CC6)C[C@H]5F)ncc4C#N)cn3)c(Cl)c2)C[C@H](O)C1 [Example 155, 4-(1-(2-chloro-4-((((1r,3r)-3-hydroxy-1-methylcyclobutyl)amino)methyl)phenyl)-1H-pyrazol-4-yl)-2-(((3R,4S)-1-(cyclopropylsulfonyl)-3-fluoropiperidin-4-yl)amino)pyrimidine-5-carbonitrile]",< 50
9,"N#Cc1cnc(N[C@H]2CCN(S(=O)(=O)C3CC3)C[C@H]2F)nc1-c1cnn(-c2ccc(CNCC3(O)CC3)cc2Cl)c1 [Example 156, 4-(1-(2-Chloro-4-((((1-hydroxycyclopropyl)methyl)amino)methyl)phenyl)-1H-pyrazol-4-yl)-2-(((3R,4S)-1-(cyclopropylsulfonyl)-3-fluoropiperidin-4-yl)amino)pyrimidine-5-carbonitrile]",< 50
10,"CC(C)(CO)NCc1ccc(-n2cc(-c3nc(NC4CCN(S(C)(=O)=O)CC4)ncc3C#N)cn2)c(Cl)c1 [Example 157, 4-(1-(2-Chloro-4-(((1-hydroxy-2-methylpropan-2-yl)amino)methyl)phenyl)-1H-pyrazol-4-yl)-2-((1-(methylsulfonyl)piperidin-4-yl)amino)pyrimidine-5-carbonitrile]",< 50
11,"CS(=O)(=O)N1CCC(Nc2ncc(C#N)c(-c3cnn(-c4ccc(CN[C@]5(C)C[C@H](O)C5)cc4Cl)c3)n2)CC1 [Example 158, 4-(1-(2-Chloro-4-((((1s,3s)-3-hydroxy-1-methylcyclobutyl)amino)methyl)phenyl)-1H-pyrazol-4-yl)-2-((1-(methylsulfonyl)piperidin-4-yl)amino)pyrimidine-5-carbonitrile]",< 50
